IC50 data for ten compounds are collected here from patent US20240116985A1, “STAPLED PEPTIDES AND METHODS THEREOF” (priority 2020, published 2024).

The target of assay [1] is T1, full-length beta-Catenin (Uniprot ID P35222) (Homo sapiens, UniProt P35222).
T1 construct: 10 nM full-length beta-Catenin (Uniprot ID P35222)
T1 sequence (P35222 1-781): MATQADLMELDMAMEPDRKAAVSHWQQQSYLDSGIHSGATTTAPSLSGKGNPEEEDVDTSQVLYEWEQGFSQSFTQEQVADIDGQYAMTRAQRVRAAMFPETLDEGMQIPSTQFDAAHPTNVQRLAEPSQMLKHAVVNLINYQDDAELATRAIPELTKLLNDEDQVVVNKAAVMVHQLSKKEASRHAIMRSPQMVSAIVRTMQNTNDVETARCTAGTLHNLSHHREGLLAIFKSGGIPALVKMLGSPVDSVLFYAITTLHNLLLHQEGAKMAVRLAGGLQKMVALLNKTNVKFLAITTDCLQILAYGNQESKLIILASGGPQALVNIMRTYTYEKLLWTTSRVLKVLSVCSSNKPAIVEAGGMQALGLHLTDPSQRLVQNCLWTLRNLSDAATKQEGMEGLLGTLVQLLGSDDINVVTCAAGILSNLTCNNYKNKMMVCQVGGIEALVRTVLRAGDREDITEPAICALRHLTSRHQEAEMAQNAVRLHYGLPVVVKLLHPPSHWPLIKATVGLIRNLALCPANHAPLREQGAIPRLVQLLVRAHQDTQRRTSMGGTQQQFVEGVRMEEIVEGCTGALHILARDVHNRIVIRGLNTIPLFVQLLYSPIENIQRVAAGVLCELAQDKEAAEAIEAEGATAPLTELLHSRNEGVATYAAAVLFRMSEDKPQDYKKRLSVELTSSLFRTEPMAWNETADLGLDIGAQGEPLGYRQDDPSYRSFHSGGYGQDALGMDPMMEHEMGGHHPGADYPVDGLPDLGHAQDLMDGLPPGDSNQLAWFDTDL
Nature of the assay: Fluorescence polarization IC50 (beta-catenin / 5FAM-TCF4 10-53 competition). In kind it is binding. To be noted: fluorescence polarization; read-out: beta-Catenin FP IC50. Background: In fluorescence polarisation assays a small probe gives low polarisation when free and higher when bound to something large.

The target in assay [2] is T2, beta-catenin/TCF4 engagement (Homo sapiens, UniProt P35222).
T2 construct: expressed in transfected cells; host or cells: HEK293
T2 sequence (P35222 1-781): T1 sequence (P35222 1-781)
The assay can be described thus: Nano-BRET target engagement assay (B-cat-Halo & TCF4-Luc in HEK293 cells). The class given is cell-based. To be noted: absolute IC50; read-out: NanoBRET Abs IC50. In general terms: BRET reads energy transfer from a luciferase to a nearby fluorophore.

The structures appear in SMILES notation. Where only a bound is given, the exact number is not on record here.

As a reminder, the IC50 is the concentration that gives 50% inhibition. Consider `CC(=O)N1CCC[C@]12CC=CCCCC1(CCCC=CCCCOC(=O)N3CC[C@@](C(=O)N[C@@H](Cc4ccsc4)C(=O)N[C@@H](Cc4csc5ccccc45)C(=O)N[C@@H](CCC(N)=O)C(N)=O)(C3)NC(=O)[C@H](CC(C)C)NC(=O)[C@H](Cc3ccccc3)NC(=O)[C@H](C)NC(=O)[C@H](C)NC(=O)[C@H](CC(=O)O)NC(=O)[C@H](CC(=O)O)NC1=O)NC(=O)[C@H](CCCCNC(=O)COCCOCCNC(=O)CC[C@@H](C)[C@H]1CC[C@H]3[C@@H]4CC[C@@H]5C[C@H](O)CC[C@]5(C)[C@H]4CC[C@]13C)NC(=O)[C@H](CC(=O)O)NC2=O` (stereo partly drawn) [I-1470, Ac-PL3-Asp-[lithocholate-PEG2]-Lys-B5-Asp-Asp-Ala-Ala-Phe-Leu-PyrS2-3Thi-BztA-Gln-NH2], for which the IC50 in assay [1] is 57 nM; in assay [2], greater than 20000 nM.

On to `CC(=O)N1CCC[C@]12CC=CCCCC1(CCCC=CCCCOC(=O)N3CC[C@@](C(=O)N[C@@H](Cc4ccsc4)C(=O)N[C@@H](Cc4csc5ccccc45)C(=O)N[C@@H](CCC(N)=O)C(N)=O)(C3)NC(=O)[C@H](CC(C)C)NC(=O)[C@H](Cc3ccccc3)NC(=O)[C@H](C)NC(=O)[C@H](C)NC(=O)[C@H](CC(=O)O)NC(=O)[C@H](CC(=O)O)NC1=O)NC(=O)[C@H](CCCCNC(=O)C13CC4(C)CC(C)(CC(C)(C4)C1)C3)NC(=O)[C@H](CC(=O)O)NC2=O` (stereo partly drawn) [I-1471, Ac-PL3-Asp-[Me3AdamantC]-Lys-B5-Asp-Asp-Ala-Ala-Phe-Leu-PyrS2-3Thi-BztA-Gln-NH2], for which the figures for the IC50 in assay [1] and in assay [2] were 34 nM and greater than 20000 nM, respectively.

With `CC(=O)N1CCC[C@]12CC=CCCCC1(CCCC=CCCCOC(=O)N3CC[C@@](C(=O)N[C@@H](Cc4ccsc4)C(=O)N[C@@H](Cc4csc5ccccc45)C(=O)N[C@@H](CCC(N)=O)C(N)=O)(C3)NC(=O)[C@H](CC(C)C)NC(=O)[C@H](Cc3ccccc3)NC(=O)[C@H](C)NC(=O)[C@H](C)NC(=O)[C@H](CC(=O)O)NC(=O)[C@H](CC(=O)O)NC1=O)NC(=O)[C@H](CCCCNC(=O)COCCOCCNC(=O)C13CC4(C)CC(C)(CC(C)(C4)C1)C3)NC(=O)[C@H](CC(=O)O)NC2=O` (stereo partly drawn) [I-1472, Ac-PL3-Asp-[Me3AdamantC-PEG2]-Lys-B5-Asp-Asp-Ala-Ala-Phe-Leu-PyrS2-3Thi-BztA-Gln-NH2], the IC50 in assay [1] is 12 nM; in assay [2], greater than 20000 nM.

In the case of `CC(=O)N1CCC[C@]12CC=CCCCC1(CCCC=CCCCOC(=O)N3CC[C@@](C(=O)N[C@@H](Cc4ccsc4)C(=O)N[C@@H](Cc4csc5ccccc45)C(=O)N[C@@H](CCC(N)=O)C(N)=O)(C3)NC(=O)[C@H](CC(C)C)NC(=O)[C@H](Cc3ccccc3)NC(=O)[C@H](CCCCNC(=O)COCCOCCNC(=O)CC[C@@H](C)[C@H]3CC[C@H]4[C@@H]5CC[C@@H]6C[C@H](O)CC[C@]6(C)[C@H]5CC[C@]34C)NC(=O)[C@H](C)NC(=O)[C@H](CC(=O)O)NC(=O)[C@H](CC(=O)O)NC1=O)NC(=O)[C@H](CC(C)(C)C)NC(=O)[C@H](CC(=O)O)NC2=O` (stereo partly drawn) [I-1474, Ac-PL3-Asp-Npg-B5-Asp-Asp-Ala-[lithocholate-PEG2]-Lys-Phe-Leu-PyrS2-3Thi-BztA-Gln-NH2], the results for the 50% inhibitory concentration (IC50) in assay [1] and in assay [2] were 41 nM and greater than 20000 nM, respectively.

`CC(=O)N1CCC[C@]12CC=CCCCC1(CCCC=CCCCOC(=O)N3CC[C@@](C(=O)N[C@@H](Cc4ccsc4)C(=O)N[C@@H](Cc4csc5ccccc45)C(=O)N[C@@H](CCC(N)=O)C(N)=O)(C3)NC(=O)[C@H](CC(C)C)NC(=O)[C@H](Cc3ccccc3)NC(=O)[C@H](CCCCNC(=O)COCCOCCNC(=O)C34CC5(C)CC(C)(CC(C)(C5)C3)C4)NC(=O)[C@H](C)NC(=O)[C@H](CC(=O)O)NC(=O)[C@H](CC(=O)O)NC1=O)NC(=O)[C@H](CC(C)(C)C)NC(=O)[C@H](CC(=O)O)NC2=O` (stereo partly drawn) [I-1476, Ac-PL3-Asp-Npg-B5-Asp-Asp-Ala-[Me3AdamantC-PEG2]-Lys-Phe-Leu-PyrS2-3Thi-BztA-Gln-NH2]: the IC50 in assay [1] was 16 nM; in assay [2], greater than 20000 nM.

For `CC(=O)N1CCC[C@]12CC=CCCCC1(CCCC=CCCCOC(=O)N3CC[C@@](C(=O)N[C@@H](Cc4ccsc4)C(=O)N[C@@H](Cc4csc5ccccc45)C(=O)N[C@@H](CCC(N)=O)C(=O)N[C@@H](CCCCNC(=O)COCCOCCNC(=O)CC[C@@H](C)[C@H]4CC[C@H]5[C@@H]6CC[C@@H]7C[C@H](O)CC[C@]7(C)[C@H]6CC[C@]45C)C(N)=O)(C3)NC(=O)[C@H](CC(C)C)NC(=O)[C@H](Cc3ccccc3)NC(=O)[C@H](C)NC(=O)[C@H](C)NC(=O)[C@H](CC(=O)O)NC(=O)[C@H](CC(=O)O)NC1=O)NC(=O)[C@H](CC(C)(C)C)NC(=O)[C@H](CC(=O)O)NC2=O` (stereo partly drawn) [I-1478, Ac-PL3-Asp-Npg-B5-Asp-Asp-Ala-Ala-Phe-Leu-PyrS2-3Thi-BztA-Gln-[lithocholate-PEG2]-Lys-NH2], the IC50 in assay [1] stood at 75 nM; in assay [2], 17100 nM.

As to `CC(=O)N1CCC[C@]12CC=CCCCC1(CCCC=CCCCOC(=O)N3CC[C@@](C(=O)N[C@@H](Cc4ccsc4)C(=O)N[C@@H](Cc4csc5ccccc45)C(=O)N[C@@H](CCC(N)=O)C(=O)N[C@@H](CCCCNC(=O)COCCOCCNC(=O)C45CC6(C)CC(C)(CC(C)(C6)C4)C5)C(N)=O)(C3)NC(=O)[C@H](CC(C)C)NC(=O)[C@H](Cc3ccccc3)NC(=O)[C@H](C)NC(=O)[C@H](C)NC(=O)[C@H](CC(=O)O)NC(=O)[C@H](CC(=O)O)NC1=O)NC(=O)[C@H](CC(C)(C)C)NC(=O)[C@H](CC(=O)O)NC2=O` (stereo partly drawn) [I-1480, Ac-PL3-Asp-Npg-B5-Asp-Asp-Ala-Ala-Phe-Leu-PyrS2-3Thi-BztA-Gln-Me3AdamantC-PEG2]-Lys-NH2], the IC50 was 37 nM in assay [1] and 9300 nM in assay [2].

For the compound `CC(=O)N1CCC[C@]12CC=CCCCC1(CCCC=CCCCOC(=O)N3CC[C@@](C(=O)N[C@@H](Cc4ccsc4)C(=O)N[C@@H](Cc4csc5ccccc45)C(=O)N[C@@H](CCC(N)=O)C(N)=O)(C3)NC(=O)[C@H](CC(C)C)NC(=O)[C@H](Cc3ccccc3)NC(=O)[C@H](C)NC(=O)[C@H](CCCN3CCC(F)(F)CC3)NC(=O)[C@H](CC(=O)O)NC(=O)[C@H](CC(=O)O)NC1=O)NC(=O)[C@H](CC(C)(C)C)NC(=O)[C@H](CC(=O)O)NC2=O` (stereo partly drawn) [I-1482, Ac-PL3-Asp-Npg-B5-Asp-Asp-F2PipNva-Ala-Phe-Leu-PyrS2-3Thi-BztA-Gln-NH2], the IC50 in assay [1] is 7 nM; in assay [2], 18000 nM.

Regarding `CC(=O)N1CCC[C@]12CC=CCCCC1(CCCC=CCCCOC(=O)N3CC[C@@](C(=O)N[C@@H](Cc4ccsc4)C(=O)N[C@@H](Cc4csc5ccccc45)C(=O)N[C@@H](CCC(N)=O)C(N)=O)(C3)NC(=O)[C@H](CC(C)C)NC(=O)[C@H](Cc3ccccc3)NC(=O)[C@H](C)NC(=O)[C@H](CC(=O)N3CCOCC3)NC(=O)[C@H](CC(=O)O)NC(=O)[C@H](CC(=O)O)NC1=O)NC(=O)[C@H](CC(C)(C)C)NC(=O)[C@H](CC(=O)O)NC2=O` (stereo partly drawn) [I-1483, Ac-PL3-Asp-Npg-B5-Asp-Asp-MorphAsn-Ala-Phe-Leu-PyrS2-3Thi-BztA-Gln-NH2], the IC50 was 22 nM in assay [1] and greater than 20000 nM in assay [2].

With `CC(=O)N1CCC[C@]12CC=CCCCC1(CCCC=CCCCOC(=O)N3CC[C@@](C(=O)N[C@@H](Cc4ccsc4)C(=O)N[C@@H](Cc4csc5ccccc45)C(=O)N[C@@H](CCC(N)=O)C(N)=O)(C3)NC(=O)[C@H](CC(C)C)NC(=O)[C@H](Cc3ccccc3)NC(=O)[C@H](C)NC(=O)[C@H](CC(=O)N3CCN(C)CC3)NC(=O)[C@H](CC(=O)O)NC(=O)[C@H](CC(=O)O)NC1=O)NC(=O)[C@H](CC(C)(C)C)NC(=O)[C@H](CC(=O)O)NC2=O` (stereo partly drawn) [I-1484, Ac-PL3-Asp-Npg-B5-Asp-Asp-MePpzAsn-Ala-Phe-Leu-PyrS2-3Thi-BztA-Gln-NH2], the IC50 was 30 nM in assay [1] and greater than 20000 nM in assay [2].
